These are literature values, as cited in paper PMC9851200, “Multiparameter phenotypic screening for endogenous TFEB and TFE3 translocation identifies novel chemical series modulating lysosome function” (Autophagy, 2022).

Each structure is given as a SMILES string.

Common to all, as to parameters: method as in original PKIS2 published data
Series [1] has as its target T1, kinases (KINOMEscan panel) (Homo sapiens, UniProt Q59H18).
T1 sequence (Q59H18 1-835): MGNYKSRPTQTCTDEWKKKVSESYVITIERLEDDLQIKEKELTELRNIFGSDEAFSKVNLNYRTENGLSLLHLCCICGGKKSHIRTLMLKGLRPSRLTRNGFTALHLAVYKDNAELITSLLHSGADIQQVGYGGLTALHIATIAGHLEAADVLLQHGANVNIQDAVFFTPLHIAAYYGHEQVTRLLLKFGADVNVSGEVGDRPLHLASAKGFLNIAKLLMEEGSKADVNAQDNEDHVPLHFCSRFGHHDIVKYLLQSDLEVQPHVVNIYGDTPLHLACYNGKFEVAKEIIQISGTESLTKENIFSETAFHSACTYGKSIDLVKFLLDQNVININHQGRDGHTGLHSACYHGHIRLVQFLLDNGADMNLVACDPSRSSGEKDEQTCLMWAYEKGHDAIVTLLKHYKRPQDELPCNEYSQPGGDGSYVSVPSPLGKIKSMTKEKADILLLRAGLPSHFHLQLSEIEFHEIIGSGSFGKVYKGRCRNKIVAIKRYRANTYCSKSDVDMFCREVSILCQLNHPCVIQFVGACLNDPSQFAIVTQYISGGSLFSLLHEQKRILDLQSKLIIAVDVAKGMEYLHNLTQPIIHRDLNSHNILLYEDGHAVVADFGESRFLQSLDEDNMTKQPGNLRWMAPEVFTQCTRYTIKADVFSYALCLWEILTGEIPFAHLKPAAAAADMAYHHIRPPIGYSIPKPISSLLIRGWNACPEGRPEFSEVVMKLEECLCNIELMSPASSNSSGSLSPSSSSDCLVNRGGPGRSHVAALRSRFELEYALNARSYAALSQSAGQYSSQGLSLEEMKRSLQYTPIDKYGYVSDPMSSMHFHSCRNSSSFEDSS
The settings on record: kinase TNNI3K; Published KINOMEscan; ref original PKIS2 published data; cited from earlier work.

In series [2] the target is T2, kinases (KINOMEscan panel) (Homo sapiens, UniProt P42680).
T2 sequence (P42680 1-631): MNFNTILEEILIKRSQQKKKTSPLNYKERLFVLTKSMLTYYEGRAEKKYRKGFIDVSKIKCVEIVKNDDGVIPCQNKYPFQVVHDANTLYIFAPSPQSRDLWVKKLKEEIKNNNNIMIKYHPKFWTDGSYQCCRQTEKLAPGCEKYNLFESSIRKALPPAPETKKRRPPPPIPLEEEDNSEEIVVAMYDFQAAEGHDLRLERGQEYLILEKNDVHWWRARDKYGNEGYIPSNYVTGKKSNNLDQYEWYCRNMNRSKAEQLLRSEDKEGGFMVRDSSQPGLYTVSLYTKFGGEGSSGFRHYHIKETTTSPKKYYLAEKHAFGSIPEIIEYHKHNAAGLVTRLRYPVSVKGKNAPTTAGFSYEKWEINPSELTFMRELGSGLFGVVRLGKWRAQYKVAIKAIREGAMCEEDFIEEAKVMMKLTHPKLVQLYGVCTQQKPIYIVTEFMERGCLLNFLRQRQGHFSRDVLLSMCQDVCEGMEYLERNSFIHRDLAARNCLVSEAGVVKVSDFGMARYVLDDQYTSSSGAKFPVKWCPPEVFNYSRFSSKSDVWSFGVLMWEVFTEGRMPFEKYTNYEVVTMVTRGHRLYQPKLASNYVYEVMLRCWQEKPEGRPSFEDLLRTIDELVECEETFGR
The settings on record: kinase TEC; Published KINOMEscan; ref original PKIS2 published data; cited from earlier work.

The target in series [3] is T3, kinases (KINOMEscan panel) (Homo sapiens, UniProt Q96PY6).
T3 sequence (Q96PY6 1-1258): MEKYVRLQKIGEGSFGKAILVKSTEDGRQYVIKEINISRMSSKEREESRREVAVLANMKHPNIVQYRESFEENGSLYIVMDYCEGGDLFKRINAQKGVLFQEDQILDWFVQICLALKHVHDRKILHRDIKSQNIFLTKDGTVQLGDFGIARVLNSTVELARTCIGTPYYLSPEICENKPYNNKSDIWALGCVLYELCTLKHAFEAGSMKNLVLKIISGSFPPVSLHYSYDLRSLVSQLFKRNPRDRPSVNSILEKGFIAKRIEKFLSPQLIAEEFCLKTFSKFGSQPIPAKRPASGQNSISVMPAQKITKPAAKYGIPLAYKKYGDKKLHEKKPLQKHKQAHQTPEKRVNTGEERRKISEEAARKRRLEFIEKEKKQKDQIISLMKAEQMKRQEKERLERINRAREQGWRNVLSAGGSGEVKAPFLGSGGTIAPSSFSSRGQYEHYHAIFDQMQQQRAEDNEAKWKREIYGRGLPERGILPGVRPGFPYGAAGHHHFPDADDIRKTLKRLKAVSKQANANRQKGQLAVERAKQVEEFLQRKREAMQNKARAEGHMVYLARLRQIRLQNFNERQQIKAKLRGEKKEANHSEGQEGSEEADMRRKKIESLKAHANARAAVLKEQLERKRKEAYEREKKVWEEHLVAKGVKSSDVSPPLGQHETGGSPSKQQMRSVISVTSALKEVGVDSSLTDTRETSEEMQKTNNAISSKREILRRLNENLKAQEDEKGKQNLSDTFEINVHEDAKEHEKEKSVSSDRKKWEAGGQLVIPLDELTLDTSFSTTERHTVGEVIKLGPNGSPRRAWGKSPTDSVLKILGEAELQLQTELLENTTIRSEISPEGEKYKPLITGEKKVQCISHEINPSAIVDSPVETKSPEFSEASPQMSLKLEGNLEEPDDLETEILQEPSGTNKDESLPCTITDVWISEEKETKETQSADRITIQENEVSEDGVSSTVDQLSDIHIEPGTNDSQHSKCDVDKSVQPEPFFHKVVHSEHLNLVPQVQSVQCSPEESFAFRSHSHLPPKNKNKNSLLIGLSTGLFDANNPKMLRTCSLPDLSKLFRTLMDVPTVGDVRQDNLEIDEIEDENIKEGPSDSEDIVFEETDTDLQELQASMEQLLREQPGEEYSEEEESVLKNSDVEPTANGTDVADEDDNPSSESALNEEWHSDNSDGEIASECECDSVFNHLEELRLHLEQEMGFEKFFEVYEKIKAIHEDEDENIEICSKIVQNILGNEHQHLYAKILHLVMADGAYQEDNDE
The note with it: kinase NEK1; Published KINOMEscan; ref original PKIS2 published data; cited from earlier work.

As to `Cc1cccc(-c2nc(Nc3ccncc3)c3ccccc3n2)n1` [NK215], the “KINOMEscan TNNI3K” value in series [1] was 20. Moreover, the “KINOMEscan TEC” value in series [2] is given as 10. Also, in series [3], the “KINOMEscan NEK1” value was 0.
